The experiment concerns the target T1, angiotensin converting enzyme (ACE) (Oryctolagus cuniculus, UniProt P12822).
T1 construct: The ACE was extracted from rabbit lung acetane powder (Pel-Freez, Biol. Inc.); tissue Pel-Freez, Biol. Inc; host or cells: rabbit lung acetone powder, crude extract (40,000 g supernatant)
T1 sequence (P12822 34-1310): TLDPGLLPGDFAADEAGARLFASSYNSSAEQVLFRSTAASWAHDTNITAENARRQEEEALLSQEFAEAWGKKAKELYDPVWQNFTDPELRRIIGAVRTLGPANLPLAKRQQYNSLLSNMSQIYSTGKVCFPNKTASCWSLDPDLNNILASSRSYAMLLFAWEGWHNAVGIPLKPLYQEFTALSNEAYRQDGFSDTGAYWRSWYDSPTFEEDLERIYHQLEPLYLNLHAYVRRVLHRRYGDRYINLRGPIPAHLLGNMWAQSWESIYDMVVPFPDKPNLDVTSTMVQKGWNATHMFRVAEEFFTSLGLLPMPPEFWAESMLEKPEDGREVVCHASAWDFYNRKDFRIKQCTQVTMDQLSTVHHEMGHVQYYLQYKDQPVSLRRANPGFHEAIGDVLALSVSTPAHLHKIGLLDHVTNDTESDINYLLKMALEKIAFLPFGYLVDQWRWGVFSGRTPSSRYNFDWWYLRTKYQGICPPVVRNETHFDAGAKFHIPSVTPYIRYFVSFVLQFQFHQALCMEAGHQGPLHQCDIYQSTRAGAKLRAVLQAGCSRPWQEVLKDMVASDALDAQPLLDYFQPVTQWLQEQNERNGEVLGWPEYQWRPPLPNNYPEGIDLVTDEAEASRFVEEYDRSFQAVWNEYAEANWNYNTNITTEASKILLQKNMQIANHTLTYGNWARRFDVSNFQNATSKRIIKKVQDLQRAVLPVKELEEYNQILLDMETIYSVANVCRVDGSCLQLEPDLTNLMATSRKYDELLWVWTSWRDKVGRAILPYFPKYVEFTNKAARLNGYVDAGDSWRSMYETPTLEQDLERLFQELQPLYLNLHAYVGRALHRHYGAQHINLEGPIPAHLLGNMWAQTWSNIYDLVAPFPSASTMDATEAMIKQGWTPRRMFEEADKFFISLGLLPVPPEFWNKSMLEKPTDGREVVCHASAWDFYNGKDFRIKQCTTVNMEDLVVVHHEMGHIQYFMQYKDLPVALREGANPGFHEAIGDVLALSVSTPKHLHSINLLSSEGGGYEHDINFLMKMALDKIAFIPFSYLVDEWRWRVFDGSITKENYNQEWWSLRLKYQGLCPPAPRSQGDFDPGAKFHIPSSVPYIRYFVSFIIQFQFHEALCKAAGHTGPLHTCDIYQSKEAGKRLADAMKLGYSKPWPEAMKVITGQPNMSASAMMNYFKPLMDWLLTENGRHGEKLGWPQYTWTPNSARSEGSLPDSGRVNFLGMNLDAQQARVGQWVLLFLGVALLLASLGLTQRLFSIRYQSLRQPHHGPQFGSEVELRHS
As to the kind of experiment: Spectrophotometric assay for angiotensin converting enzyme inhibitors. The experiment is classed as biochemical. As to conditions: crude ACE extract from rabbit lung; substrate benzoyl-glycyl-histidyl-leucine; 30 minutes at 37° C.; absorbance at 228 nm. Here is the method: The activity of the novel compounds of this invention as hypotensive agents was established in two systems which measure their ability as angiotensin converting enzyme inhibitors; namely, a spectrophotometric assay of the compounds in vitro and by the measurement of the blood pressure lowering effect of the compounds in the aorta-coarcted renal hypertensive rats.
The in vitro activity for inhibition of the angiotensin converting enzyme (ACE) was measured by the method of Cushman, D. W. and Cheung, H. S., Biochem. Pharmacol. 20, 1637-1648 (1971), using benzoyl-glycyl-histidyl-leucine as the substrate. The reaction mixture consisted of 50 ml. of potassium phosphate (500 mM., […]), […]. of sodium chloride (2500 mM.), 25 ml. of substrate (50 mM), 30 to 50 ml. of the crude extract of ACE, 10 ml. of test compound (2.5 mM) or vehicle and a suitable amount of distilled water to give a total volume of 250 ml. This reaction mixture was incubated for 30 minutes at 37° C. and the reaction was then terminated by the addition of 250 ml. of 1 N hydrochloric acid. The hippuric acid was then extracted with 1.5 ml. of ethyl acetate by vortex mixing for 15 seconds. After centrifugation, 1 ml. of the ethyl acetate layer was pipetted into a new tube and evaporated to dryness. The extracted hippuric acid was then dissolved in 1 ml. of water and the amount of this acid was then measured by its absorbance at 228 nm. The ACE was extracted from rabbit lung acetane powder (Pel-Freez, Biol. Inc.) by blending 5 g. of the powder in 50 ml. of phosphate buffer (50 mM, pH 8.3) and then centrifuging at 40,000 g for 30 minutes. The supernatant was then kept at 5° C. and used as the enzyme source. The activity of the ACE inhibitor was calculated as the percent inhibition of ACE activity compared to the control value of that particular assay. A full dose-response inhibitory curve is then performed to determine the IC50 value which may be defined as the molar concentration of a compound that will inhibit the ACE activity by 50%.

The source of these data is patent US4226775A, “Substituted thio-substituted benzyl-propionyl-L-prolines” (American Cyanamid Company, priority 1979, dated 1980).

For `CC(=O)S[C@@H](C(=O)c1ccc(Br)cc1)[C@@H](C)C(=O)N1CCC[C@H]1C(=O)O` [[S-(R*,S*)]-1-[3-acetylthio-3-(4-bromobenzoyl)-2-methylpropionyl]-L-proline], the IC50 (commonly the midpoint of a concentration-inhibition curve) amounted to 98.5 nM.
